This is an account of results in US20260008793A1, “IONIZABLE CATIONIC LIPIDS INCORPORATING SILICON” (ALDEXCHEM KFT., priority 2022, published 2026).

Data set [1] can be described thus: LNP size, PDI and zeta potential by Dynamic Light Scattering (Method A). It counts as physicochemical. To be noted: LNP formulated by Method A; for Zeta potential (mV): 1xPBS pH 7.4; for PDI / Size (nm): DLS; for Size (nm): Luciferase-mRNA loaded. The procedure, abridged:
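LNPs formulated by microfluidic mixing of mRNA in 10 mM citrate pH 4.0 with ethanolic lipid mix (ionizable lipid added to master mix) at 3:1 aqueous:lipid ratio, then dialysed (100 kDa MWCO). Size, PDI and zeta potential measured by dynamic light scattering.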

Data set [2] is described as follows: Encapsulation efficiency, RiboGreen RNA assay (Method A). Type of data set: physicochemical. To be noted: LNP formulated by Method A. The method in brief: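 mRNA-LNPs (Method A formulation) diluted in TE buffer pH 7.4/7.5 and measured in duplicate with and without Triton lysis (37° C., 10 min). RiboGreen fluorescence read at ex 480/em 525. mRNA quantified against a standard curve.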

With `CCCCCCCCCCSC(CCCC)C(=O)OCCCCCCN(CCCCO)CCCCCC(OCCCCCCCC)O[Si](C)(C)OCCCCCCCC` (stereo not drawn) [Example 168, 7-(4-hydroxybutyl)-15,15-dimethyl-13-(octyloxy)-14,16-dioxa-7-aza-15-silatetracosyl 2-(decylthio)hexanoate], in data set [1], the “Zeta potential (mV)” value is −11.79 mV, the PDI amounted to 0.085 and the “Size (nm)” value turned out to be 224.2 nm. Also, in data set [2], the “EE (%)” value was found to be 96%.

As for `CCCCCCCCCCSC(CCCC)C(=O)OCCCCCCN(CCCCO)CCCCCCOC(CCCCCCC)O[Si](C)(C)O[Si](C)(C)OCCCCCCCC` (stereo not drawn) [Example 173, 15-heptyl-7-(4-hydroxybutyl)-17,17,19,19-tetramethyl-14,16,18,20-tetraoxa-7-aza-17,19-disilaoctacosyl 2-(decylthio)hexanoate], in data set [1], the “Zeta potential (mV)” value was −11.32 mV, the PDI is reported as 0.033 and the “Size (nm)” value is listed as 180.5 nm. Besides, the “EE (%)” value in data set [2] turned out to be 97%.

On to `CCCCCCCCO[Si](C)(C)O[Si](C)(C)OC(CCCCCCC)OCCCCCCN(CCCCO)CCCCCCOC(=O)C(CCCCCC)CCCCCCCC` (stereo not drawn) [Example 135, 15-heptyl-7-(4-hydroxybutyl)-17,17,19,19-tetramethyl-14,16,18,20-tetraoxa-7-aza-17,19-disilaoctacosyl 2-hexyldecanoate], for which, in data set [1], the “Zeta potential (mV)” value is on record as −16.11 mV, the PDI came out at 0.158 and the “Size (nm)” value worked out at 271.2 nm. Also, in data set [2], the “EE (%)” value worked out at 91%.

With `CCCCCCCCCC(OCCCCCCN(CCCCO)CCCCCCOC(CCCCCCCCC)O[Si](C)(C)CCCCCC)O[Si](C)(C)CCCCCC` (stereo not drawn) [Example 104, 5-(6-((1-((hexyldimethylsilyl)oxy)decyl)oxy)hexyl)-15,15-dimethyl-13-nonyl-12,14-dioxa-5-aza-15-silahenicosan-1-ol], in data set [1], the “Zeta potential (mV)” value is reported as −13.26 mV, the PDI was determined as 0.043 and the “Size (nm)” value came out at 184.4 nm. In data set [2], the “EE (%)” value is 96%.

Turning to `CCCCCCCCC(CCCCCC)C(=O)OCCCCCCN(CCCCO)CCCCCCOC(CCCCCCC)O[Si](C)(C)O[Si](C)(C)CCCCCCCC` (stereo not drawn) [Example 133, 15-heptyl-7-(4-hydroxybutyl)-17,17,19,19-tetramethyl-14,16,18-trioxa-7-aza-17,19-disilaheptacosyl 2-hexyldecanoate], in data set [1], the “Zeta potential (mV)” value is −10.68 mV, the PDI turned out to be 0.039 and the “Size (nm)” value is on record as 135.7 nm. The “EE (%)” value in data set [2] was 97%.

`CC/C=C\C/C=C\C/C=C\C/C=C\C/C=C\CCCCN(CCCCO)CCCCCC(OCCCCCCCC)O[Si](C)(C)O[Si](C)(C)OCCCCCCCC` (stereo not drawn) [Example 200, 4-(((5Z,8Z,11Z,14Z,17Z)-icosa-5,8,11,14,17-pentaen-1-yl)(6-(octyloxy)-6-((1,1,3,3-tetramethyl-3-(octyloxy)disiloxaneyl)oxy)hexyl)amino)butan-1-ol]: in data set [1], the “Zeta potential (mV)” value is reported as −13.03 mV, the PDI is listed as 0.089 and the “Size (nm)” value was 155.1 nm. The “EE (%)” value in data set [2] was 97%.

With `CCCCCCCCCCSC(CCCC)C(=O)OCCCCCCN(CCCCO)CCCCCC(OCCCCCCCC)O[Si](C)(C)O[Si](C)(C)OCCCCCCCC` (stereo not drawn) [Example 172, 6-((4-hydroxybutyl)(6-(octyloxy)-6-((1,1,3,3-tetramethyl-3-(octyloxy)disiloxaneyl)oxy)hexyl)amino)hexyl 2-(decylthio)hexanoate], in data set [1], the “Zeta potential (mV)” value is recorded as −9.92 mV, the PDI is 0.07 and the “Size (nm)” value is 151.7 nm. In data set [2], the “EE (%)” value is 97%.

Regarding `CCCCCCCCOC(CCCCCN(CCCCO)CCCCCCOC(=O)C(CCCCCCCC)SCCCCC)O[Si](C)(C)O[Si](C)(C)OCCCCCCCC` (stereo not drawn) [Example 183, 6-((4-hydroxybutyl)(6-(octyloxy)-6-((1,1,3,3-tetramethyl-3-(octyloxy)disiloxaneyl)oxy)hexyl)amino)hexyl 2-(pentylthio)decanoate], in data set [1], the “Zeta potential (mV)” value is recorded as −10.92 mV, the PDI amounted to 0.044 and the “Size (nm)” value was determined as 143.9 nm. Besides, the “EE (%)” value in data set [2] came to 97%.

In the case of `CCCCCCCCOC(CCCCCN(CCCCO)CCCCCC(OCCCCCCCC)O[Si](C)(C)O[Si](C)(C)CCCCCCCC)O[Si](C)(C)O[Si](C)(C)CCCCCCCC` (stereo not drawn) [Example 107, 4-(bis(6-(octyloxy)-6-((1,1,3,3-tetramethyl-3-octyldisiloxaneyl)oxy)hexyl)amino)butan-1-ol], in data set [1], the “Zeta potential (mV)” value was −11.69 mV, the PDI is 0.186 and the “Size (nm)” value came to 152.1 nm. The “EE (%)” value in data set [2] came out at 96%.

`CCCCCCCCOC(CCCCCCC)O[Si](C)(C)CCCCCCN(CCCCO)CCCCCC[Si](C)(C)OC(CCCCCCC)OCCCCCCCC` (stereo not drawn) [Example 113, 5-(6-(dimethyl((1-(octyloxy)octyl)oxy)silyl)hexyl)-14-heptyl-12,12-dimethyl-13,15-dioxa-5-aza-12-silatricosan-1-ol]: in data set [1], the “Zeta potential (mV)” value is recorded as −5.00 mV, the PDI turned out to be 0.11 and the “Size (nm)” value is 174.6 nm. In addition, the “EE (%)” value in data set [2] came out at 94%.

Regarding `CCCCCCCCSC(CCCCCCC)O[Si](C)(C)OCCCCCCN(CCCCO)CCCCCCO[Si](C)(C)OC(CCCCCCC)SCCCCCCCC` (stereo not drawn) [Example 115, 15-heptyl-5-(10-heptyl-8,8-dimethyl-7,9-dioxa-11-thia-8-silanonadecyl)-13,13-dimethyl-12,14-dioxa-16-thia-5-aza-13-silatetracosan-1-ol], in data set [1], the “Zeta potential (mV)” value is reported as 0.3 mV, the PDI was 0.13 and the “Size (nm)” value was found to be 130.2 nm. For the same molecule, in data set [2], the “EE (%)” value is 94%.

For `CCCCCCCCCCSC(CCCC)C(=O)OCCCCCCN(CCCCO)CCCCCCOC(CCCCCCC)O[Si](C)(C)O[Si](C)(C)CCCCCCCC` (stereo not drawn) [Example 171, 15-heptyl-7-(4-hydroxybutyl)-17,17,19,19-tetramethyl-14,16,18-trioxa-7-aza-17,19-disilaheptacosyl 2-(decylthio)hexanoate], in data set [1], the “Zeta potential (mV)” value is listed as −12.04 mV, the PDI amounted to 0.017 and the “Size (nm)” value was found to be 178.9 nm. Also, the “EE (%)” value in data set [2] worked out at 95%.

With `CCCCCCCCOC(CCCCCN(CCCCCC(OCCCCCCCC)O[Si](C)(C)O[Si](C)(C)CCCCCCCC)CCC1CCCN1C)O[Si](C)(C)O[Si](C)(C)CCCCCCCC` (stereo not drawn) [Example 118, N-(2-(1-methylpyrrolidin-2-yl)ethyl)-6-(octyloxy)-N-(6-(octyloxy)-6-((1,1,3,3-tetramethyl-3-octyldisiloxaneyl)oxy)hexyl)-6-((1,1,3,3-tetramethyl-3-octyldisiloxaneyl)oxy)hexan-1-amine], in data set [1], the “Zeta potential (mV)” value is −15.92 mV, the PDI came to 0.04 and the “Size (nm)” value amounted to 179.2 nm. Moreover, the “EE (%)” value in data set [2] was found to be 98%.

As to `CCCCCCCCOC(CCCCCN(CCCCO)CCCCCCOC(=O)C(CCCCCCCC)SCCCCC)O[Si](C)(C)OCC(CCCCCC)CCCCCCCC` (stereo not drawn) [Example 185, 18-hexyl-7-(4-hydroxybutyl)-15,15-dimethyl-13-(octyloxy)-14,16-dioxa-7-aza-15-silahexacosyl 2-(pentylthio)decanoate], in data set [1], the “Zeta potential (mV)” value is listed as −16.4 mV, the PDI is 0.04 and the “Size (nm)” value is 213.6 nm. For the same molecule, in data set [2], the “EE (%)” value is 97%.

Take `CCCCCCCCOC(CCCCCN(CCCCO)CCCCCCOC(=O)C(CCCCCC)CCCCCCCC)O[Si](C)(C)O[Si](C)(C)OCCCCCCCC` (stereo not drawn) [Example 134, 6-((4-hydroxybutyl)(6-(octyloxy)-6-((1,1,3,3-tetramethyl-3-(octyloxy)disiloxaneyl)oxy)hexyl)amino)hexyl 2-hexyldecanoate]: in data set [1], the “Zeta potential (mV)” value is given as −11.99 mV, the PDI is on record as 0.006 and the “Size (nm)” value is recorded as 145.8 nm. The “EE (%)” value in data set [2] is 98%.

Turning to `CCCCCCCCC(SCCCCC)C(=O)OCCCCCCN(CCCCO)CCCCCCOC(CCCCCCC)O[Si](C)(C)CCCCCCCC` (stereo not drawn) [Example 178, 15-heptyl-7-(4-hydroxybutyl)-17,17-dimethyl-14,16-dioxa-7-aza-17-silapentacosyl 2-(pentylthio)decanoate], in data set [1], the “Zeta potential (mV)” value was −13.00 mV, the PDI stood at 0.058 and the “Size (nm)” value came to 209.9 nm. Moreover, the “EE (%)” value in data set [2] was determined as 96%.

`CCCCCCCCSC(CCCCCCC)O[Si](C)(C)OCCCCCCN(CCCCO)CCCCCCOC(=O)C(CCCCCC)CCCCCCCC` (stereo not drawn) [Example 147, 17-heptyl-7-(4-hydroxybutyl)-15,15-dimethyl-14,16-dioxa-18-thia-7-aza-15-silahexacosyl 2-hexyldecanoate]: in data set [1], the “Zeta potential (mV)” value was −7.5 mV, the PDI is 0.14 and the “Size (nm)” value is reported as 146.8 nm. Besides, the “EE (%)” value in data set [2] is reported as 96%.

For the molecule `CCCCCCCCOC(CCCCCN(CCCCCC(OCCCCCCCC)O[Si](C)(C)CCCCCCCC)CCC1CCCN1C)O[Si](C)(C)CCCCCCCC` (stereo not drawn) [Example 116, 6-((dimethyl(octyl)silyl)oxy)-N-(6-((dimethyl(octyl)silyl)oxy)-6-(octyloxy)hexyl)-N-(2-(1-methylpyrrolidin-2-yl)ethyl)-6-(octyloxy)hexan-1-amine], in data set [1], the “Zeta potential (mV)” value is recorded as −14.17 mV, the PDI is given as 0.092 and the “Size (nm)” value is on record as 189.8 nm. For the same molecule, the “EE (%)” value in data set [2] was 96%.
